For series [1], the target named is T1, bovine carbonic anhydrase II (Bos taurus, UniProt P00921).
T1 construct: carbonic anhydrase II (bCAII, ≥3000 W-A units/mg from bovine erythrocytes) from Sigma; purchased Sigma (Taufkirchen, Germany); host or cells: isolated from bovine erythrocytes
As to the kind of experiment: Enzymatic assay of bCA II inhibition, absorbance at 415 nm.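 As to all read-outs here: enzyme is carbonic anhydrase II isolated from bovine erythrocytes, with its activity followed photometrically at 415 nm.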 Type of series: biochemical. The conditions noted are these: for inhibition at 1 µM: 1 μM concentration of the inhibitor, triplicate with three technical replicas; for Ki: CA II, from Lineweaver–Burk, Dixon and Cornish Bowden plots, read-out: Inhibition constant Ki.
Procedure: The enzymatic assays have been performed with carbonic anhydrase II (bCAII, ≥3000 W-A units/mg from bovine erythrocytes) from Sigma (Taufkirchen, Germany) using a BMG Labtech Spectrostar Omega apparatus (BMG Labtech, Ortenberg, Germany) measuring λ = 415 nm. Conditions have been described previously [72]. Ki and Ki′ values were determined from Lineweaver–Burk, Dixon and Cornish Bowden plots, respectively.

These results are taken from article PMC11243685, “Synthesis and Enzymatic Evaluation of a Small Library of Substituted Phenylsulfonamido-Alkyl Sulfamates towards Carbonic Anhydrase II” (Molecules, 2024).

One may read the melting point as the temperature of the solid-liquid transition. In general, inhibition refers to the drop in the measured response relative to a control, in per cent. Low readings indicate a weak effect, high ones a strong effect. A word on the Ki: it is the equilibrium dissociation constant of an inhibitor or competing ligand from its target.

T1 sequence (P00921 whole entry): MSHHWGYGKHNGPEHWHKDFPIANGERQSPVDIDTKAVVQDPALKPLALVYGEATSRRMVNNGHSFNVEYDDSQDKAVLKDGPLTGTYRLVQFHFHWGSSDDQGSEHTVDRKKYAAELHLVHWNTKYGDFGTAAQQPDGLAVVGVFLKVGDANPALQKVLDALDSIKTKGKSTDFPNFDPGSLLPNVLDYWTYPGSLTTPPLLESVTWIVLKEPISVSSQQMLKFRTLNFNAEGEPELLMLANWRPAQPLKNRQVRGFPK

Turning to `NS(=O)(=O)OCCCCCCCCNS(=O)(=O)c1ccc(C23CC4CC(CC(C4)C2)C3)cc1` [77b, 8-[(4-(Adamantan-1-yl)phenyl)sulfonamido]octyl Sulfamate], the melting point was 85 to 86 °C. This molecule also registered an inhibition at 1 µM in series [1] (bCA II) of 32.6 ± 0.4%.

Take `CC(C)(C)c1ccc(S(=O)(=O)NCCCCCCCCCOS(N)(=O)=O)cc1` [56b, 9-[(4-(tert-Butyl)phenyl)sulfonamido]nonyl Sulfamate]: the melting point was in the range of 106 to 107 °C. The inhibition at 1 µM in series [1] (bCA II) is 10 ± 0.6%.

Regarding `CC(C)c1ccc(S(=O)(=O)NCCCCCCOS(N)(=O)=O)cc1` [37b, 6-[(4-Isopropylphenyl)sulfonamido]hexyl Sulfamate], the melting point fell in the range of 102 to 103 °C. In series [1] (bCA II), this molecule returned an inhibition at 1 µM of 45.9 ± 0.7%.

The molecule `Cc1ccccc1S(=O)(=O)NCCCOS(N)(=O)=O` [27b, 3-[(2-Methylphenyl)sulfonamido]propyl Sulfamate] showed a melting point of 68 to 70 °C. This molecule also came in with an inhibition at 1 µM in series [1] (bCA II) of 50 ± 0.8%.

For the molecule `CC(C)c1ccc(S(=O)(=O)NCCOS(N)(=O)=O)cc1` [33b, 2-[(4-Isopropylphenyl)sulfonamido]ethyl Sulfamate], the melting point fell in the range of 81 to 82 °C. Besides, the Ki in series [1] turned out to be 840 ± 20 nM. This molecule had an inhibition at 1 µM in series [1] (bCA II) of 63.2 ± 0.4%.

In the case of `CC(C)(C)c1ccc(S(=O)(=O)NCCCCCCCOS(N)(=O)=O)cc1` [54b, 7-[(4-(tert-Butyl)phenyl)sulfonamido]heptyl Sulfamate], the melting point was 95 to 96 °C. The inhibition at 1 µM in series [1] (bCA II) came to 28.4 ± 0.4%.

With `CC(C)c1ccc(S(=O)(=O)NCCCCOS(N)(=O)=O)cc1` [35b, 4-[(4-Isopropylphenyl)sulfonamido]butyl Sulfamate], the melting point is 95 to 97 °C. In series [1] (bCA II), this molecule displayed an inhibition at 1 µM of 43.7 ± 0.4%.

Consider `Cc1ccc(S(=O)(=O)NCCCCCOS(N)(=O)=O)cc1` [15b, 5-[(4-Methylphenyl)sulfonamido]pentyl Sulfamate], for which the melting point lay in the range of 94 to 95 °C. Besides, in series [1] (bCA II), the inhibition at 1 µM turned out to be 58.9 ± 0.2%.

The molecule `CC(C)c1ccc(S(=O)(=O)NCCCCCCCOS(N)(=O)=O)cc1` [38b, 7-[(4-Isopropylphenyl)sulfonamido]heptyl Sulfamate] displayed a melting point of 70 to 72 °C. This molecule came in with an inhibition at 1 µM in series [1] (bCA II) of 30.3 ± 0.1%.

Molecule `NS(=O)(=O)OCCCNS(=O)(=O)c1ccccc1` [2b, 3-(Phenylsulfonamido]propyl Sulfamate] showed a melting point of 64 to 66 °C. In series [1] (bCA II), this molecule yielded an inhibition at 1 µM of 39.9 ± 0.4%.

As to `NS(=O)(=O)OCCCCCCCNS(=O)(=O)c1ccccc1` [6b, 7-(Phenylsulfonamido]heptyl Sulfamate], the melting point was 59 to 61 °C. In addition, in series [1] (bCA II), the inhibition at 1 µM is 56 ± 0.8%.

With `CC(C)c1ccc(S(=O)(=O)NCCCOS(N)(=O)=O)cc1` [34b, 3-[(4-Isopropylphenyl)sulfonamido]propyl Sulfamate], the melting point was 83 to 84 °C. In series [1] (bCA II), this molecule displayed an inhibition at 1 µM of 60.3 ± 0.9%.

The molecule `Cc1ccc(S(=O)(=O)NCCOS(N)(=O)=O)cc1` [12b, 2-[(4-Methylphenyl)sulfonamido]ethyl Sulfamate] yielded a melting point of 79 to 81 °C. Also, the Ki in series [1] was 760 ± 30 nM. In series [1] (bCA II), this molecule gave an inhibition at 1 µM of 75.8 ± 0.6%.

As to `CC(C)(C)c1ccc(S(=O)(=O)NCCCCOS(N)(=O)=O)cc1` [51b, 4-[(4-(tert-Butyl)phenyl)sulfonamido]butyl Sulfamate], the melting point was 100 to 102 °C. In series [1] (bCA II), this molecule yielded an inhibition at 1 µM of 44.9 ± 0.4%.

Take `Cc1cccc(S(=O)(=O)NCCOS(N)(=O)=O)c1` [19b, 2-[(3-Methylphenyl)sulfonamido]ethyl Sulfamate]: the melting point is 36 to 38 °C. In series [1] (bCA II), testing at 1 µM gave an inhibition of 59.5 ± 0.1%.

Regarding `CC(C)(C)c1ccc(S(=O)(=O)NCCCCCCCCCO)cc1` [56a, 4-(tert-Butyl)-N-(9-hydroxynonyl)benzene Sulfonamide], the melting point fell in the range of 69 to 70 °C.

As to `CC(C)(C)c1ccc(S(=O)(=O)NCCCCCCCCCCOS(N)(=O)=O)cc1` [57b, 10-[(4-(tert-Butyl)phenyl)sulfonamido]decyl Sulfamate], the melting point was 92 to 93 °C. 1 µM produced 20.6 ± 0.6% inhibition in series [1] (bCA II).

For the molecule `Cc1cccc(S(=O)(=O)NCCCCCCCCOS(N)(=O)=O)c1` [25b, 8-[(3-Methylphenyl)sulfonamido]octyl Sulfamate], the melting point was 54 to 56 °C. In series [1] (bCA II), this molecule returned an inhibition at 1 µM of 38.8 ± 0.1%.

With `CC(C)(C)c1ccc(S(=O)(=O)NCCOS(N)(=O)=O)cc1` [49b, 2-[(4-(tert-Butyl)phenyl)sulfonamido]ethyl Sulfamate], the melting point lay within 92 to 93 °C. The inhibition constant Ki in series [1] is 670 ± 50 nM. In addition, in series [1] (bCA II), the mode of inhibition entry is on record as “competitive inhibitor” and 1 µM produced 75.6 ± 0.4% inhibition.

`CC(C)c1ccc(S(=O)(=O)NCCCCCCCCOS(N)(=O)=O)cc1` [39b, 8-[(4-Isopropylphenyl)sulfonamido]octyl Sulfamate] had a melting point of 69 to 70 °C. The molecule further came in with an inhibition at 1 µM in series [1] (bCA II) of 28.1 ± 0.5%.

With `CC(C)(C)c1ccc(S(=O)(=O)NCCCCCOS(N)(=O)=O)cc1` [52b, 5-[(4-(tert-Butyl)phenyl)sulfonamido]pentyl Sulfamate], the melting point lay in the range of 88 to 89 °C. This molecule returned an inhibition at 1 µM in series [1] (bCA II) of 35.9 ± 0.4%.

Take `Cc1ccc(S(=O)(=O)NCCCCCO)cc1` [15a, N-(5-Hydroxypentyl)-4-methylbenzene Sulfonamide]: the melting point was 60 to 61 °C.

`NS(=O)(=O)OCCCCCCNS(=O)(=O)c1ccc(C2CCCCC2)cc1` [72b, 6-[(4-Cyclohexylphenyl)sulfonamido]hexyl Sulfamate]: the melting point was 86 to 88 °C. This molecule had an inhibition at 1 µM in series [1] (bCA II) of 8.6 ± 0.6%.

Molecule `Cc1ccc(S(=O)(=O)NCCCCCCCCO)cc1` [18a, N-(8-Hydroxyoctyl)-4-methylbenzene Sulfonamide] returned a melting point of 87 to 88 °C.

As to `CC(C)(C)c1ccc(S(=O)(=O)NCCCCCCO)cc1` [53a, 4-(tert-Butyl)-N-(6-hydroxyhexyl)benzene Sulfonamide], the melting point fell in the range of 53 to 54 °C.

`O=S(=O)(NCCCCCCCCCCO)c1ccc(C23CC4CC(CC(C4)C2)C3)cc1` [79a, 4-(Adamantan-1-yl)-N-(10-hydroxydecyl)benzene Sulfonamide] returned a melting point of 76 to 79 °C.

Consider `O=S(=O)(NCCCCCCCCCCO)c1ccccc1` [9a, N-(10-Hydroxydecyl)benzene Sulfonamide], for which the melting point fell in the range of 67 to 69 °C.

Take `O=S(=O)(NCCCCCCCCCCCCO)c1ccccc1` [11a, N-(12-Hydroxydodecyl)benzene Sulfonamide]: the melting point is 76 to 77 °C.

Regarding `NS(=O)(=O)OCCCCCCCCNS(=O)(=O)c1ccccc1` [7b, 8-(Phenylsulfonamido]octyl Sulfamate], the melting point lay within 77 to 78 °C. In series [1] (bCA II), testing at 1 µM gave an inhibition of 60.2 ± 0.7%.

As to `NS(=O)(=O)OCCCCCCCCCNS(=O)(=O)c1ccccc1` [8b, 9-(Phenylsulfonamido]nonyl Sulfamate], the melting point lay in the range of 82 to 84 °C. The inhibition at 1 µM in series [1] (bCA II) was 55.4 ± 0.7%.

Molecule `Cc1ccc(S(=O)(=O)NCCCOS(N)(=O)=O)cc1` [13b, 3-[(4-Methylphenyl)sulfonamido]propyl Sulfamate] displayed a melting point of 86 to 87 °C. Moreover, in series [1] (bCA II), the inhibition at 1 µM stood at 63.8 ± 0.8%.

In the case of `CC(C)(C)c1cccc(S(=O)(=O)NCCCCCCCCOS(N)(=O)=O)c1` [64b, 8-[(3-(tert-Butyl)phenyl)sulfonamido]octyl Sulfamate], the melting point fell in the range of 57 to 59 °C. Besides, in series [1] (bCA II), the inhibition at 1 µM was found to be 16 ± 0.4%.

The molecule `O=S(=O)(NCCCCCCO)c1ccccc1` [5a, N-(6-Hydroxyhexyl)benzene Sulfonamide] showed a melting point of 40 to 42 °C.

Molecule `O=S(=O)(NCCCCCCCCCO)c1ccccc1` [8a, N-(9-Hydroxynonyl)benzene Sulfonamide] came in with a melting point of 40 to 41 °C.

The molecule `CC(C)(C)c1ccc(S(=O)(=O)NCCO)cc1` [49a, 4-(tert-Butyl)-N-(2-hydroxyethyl)benzene Sulfonamide] displayed a melting point of 75 to 77 °C.

As for `CC(C)(C)c1ccc(S(=O)(=O)NCCCCCCCO)cc1` [54a, 4-(tert-Butyl)-N-(7-hydroxyheptyl)benzene Sulfonamide], the melting point was 51 to 52 °C.

The molecule `O=S(=O)(NCCCCCCCCCO)c1ccc(C23CC4CC(CC(C4)C2)C3)cc1` [78a, 4-(Adamantan-1-yl)-N-(9-hydroxynonyl)benzene Sulfonamide] gave a melting point of 84 to 85 °C.

`O=S(=O)(NCCCCCCCCO)c1ccc(C23CC4CC(CC(C4)C2)C3)cc1` [77a, 4-(Adamantan-1-yl)-N-(8-hydroxyoctyl)benzene Sulfonamide] gave a melting point of 101 to 102 °C.

The molecule `Cc1ccc(S(=O)(=O)NCCCO)cc1` [13a, N-(3-Hydroxypropyl)-4-methylbenzene Sulfonamide] returned a melting point of 55 to 57 °C.

`Cc1ccc(S(=O)(=O)NCCCCO)cc1` [14a, N-(4-Hydroxybutyl)-4-methylbenzene Sulfonamide] came in with a melting point of 50 to 51 °C.

`CC(C)(C)c1ccc(S(=O)(=O)NCCCCCCCCCCO)cc1` [57a, 4-(tert-Butyl)-N-(10-hydroxydecyl)benzene Sulfonamide] gave a melting point of 75 to 76 °C.

`O=S(=O)(NCCO)c1ccccc1` [1a, N-(2-Hydroxyethyl)benzene Sulfonamide] gave a melting point of 78 to 79 °C.

For the molecule `CC(C)(C)c1ccc(S(=O)(=O)NCCCCO)cc1` [51a, 4-(tert-Butyl)-N-(4-hydroxybutyl)benzene Sulfonamide], the melting point lay within 58 to 60 °C.

`Cc1ccccc1S(=O)(=O)NCCO` [26a, N-(2-Hydroxyethyl)-2-methylbenzene Sulfonamide] displayed a melting point of 73 to 74 °C.

In turn, `Cc1ccc(S(=O)(=O)NCCO)cc1` [12a, N-(2-Hydroxyethyl)-4-methylbenzene Sulfonamide] came in with a melting point of 55 to 57 °C.
